Organism: Rattus norvegicus
Test: DrugMatrix - Regimen: Daily Repeat
Type: toxicity, organism-based, Sprague-Dawley
Parameters: regimen Daily Repeat, gender Male, age 6-8 weeks
Settings: in vivo, po, route oral GAVAGE, […]; for ABSOLUTE BASOPHIL / ABSOLUTE EOSINOPHIL / ABSOLUTE LYMPHOCYTE / ABSOLUTE MONOCYTE / ABSOLUTE SEGMENTED NEUTROPHIL / BASOPHIL / EOSINOPHIL / ERYTHROCYTE COUNT / HEMATOCRIT / HEMOGLOBIN / LEUKOCYTE COUNT / LYMPHOCYTE / MEAN CORPUSCULAR HEMOGLOBIN / MEAN CORPUSCULAR HEMOGLOBIN CONCENTRATION / MEAN CORPUSCULAR VOLUME / MONOCYTE / NEUTROPHIL / NUCLEATED RED BLOOD CELLS / PLATELET COUNT: tissue Blood; for ALANINE AMINOTRANSFERASE / ALKALINE PHOSPHATASE / ASPARTATE AMINOTRANSFERASE / BLOOD UREA NITROGEN / CARBON DIOXIDE / CHLORIDE / CHOLESTEROL / CREATINE PHOSPHOKINASE / CREATININE / GLUCOSE / LACTATE DEHYDROGENASE / LIPASE / PHOSPHORUS / POTASSIUM / SODIUM / TOTAL BILIRUBIN / TOTAL PROTEIN / URIC ACID: tissue Plasma
[1] = 0 mg/kg, 72 h, dose level Control, time 3 day
[2] = 0 mg/kg, 120 h, dose level Control, time 5 day
[3] = 10 mg/kg, 72 h, dose level Low, time 3 day

CCOC(=O)C1=C(C)NC(C)=C(C(=O)OC)C1c1cccc([N+](=O)[O-])c1 (stereo not given) [NITRENDIPINE]
ABSOLUTE BASOPHIL [1]: 0 CELLS/uL
ABSOLUTE EOSINOPHIL [1]: 0 CELLS/uL
ABSOLUTE LYMPHOCYTE [1]: 9244.83 CELLS/uL
ABSOLUTE MONOCYTE [1]: 102 CELLS/uL
ABSOLUTE SEGMENTED NEUTROPHIL [1]: 869.83 CELLS/uL
BASOPHIL [1]: 0%
EOSINOPHIL [1]: 0%
ERYTHROCYTE COUNT [1]: 5.43 x10E6/uL
HEMATOCRIT [1]: 34.03%
HEMOGLOBIN [1]: 13.27 G/DL
LEUKOCYTE COUNT [1]: 10.22 x10E3/uL
LYMPHOCYTE [1]: 90.33%
MEAN CORPUSCULAR HEMOGLOBIN [1]: 24.48 pg
MEAN CORPUSCULAR HEMOGLOBIN CONCENTRATION [1]: 39.03 G/DL
MEAN CORPUSCULAR VOLUME [1]: 62.75 fL
MONOCYTE [1]: 1%
NEUTROPHIL [1]: 8.67%
NUCLEATED RED BLOOD CELLS [1]: 0.17 /100WBC
PLATELET COUNT [1]: 989 x10E3/uL
ALANINE AMINOTRANSFERASE [1]: 77 u/L
ALKALINE PHOSPHATASE [1]: 464.83 u/L
ASPARTATE AMINOTRANSFERASE [1]: 89.83 u/L
BLOOD UREA NITROGEN [1]: 12.17 mg/dL
CARBON DIOXIDE [1]: 34.17 mmol/L
CHLORIDE [1]: 98.33 MEQ/L
CHOLESTEROL [1]: 75.17 mg/dL
CREATINE PHOSPHOKINASE [1]: 367.67 u/L
CREATININE [1]: 0.16 mg/dL
GLUCOSE [1]: 142.67 mg/dL
LACTATE DEHYDROGENASE [1]: 139.33 u/L
LIPASE [1]: 9.5 u/L
PHOSPHORUS [1]: 10.85 mg/dL
POTASSIUM [1]: 6.38 MEQ/L
SODIUM [1]: 143.2 MEQ/L
TOTAL BILIRUBIN [1]: 0.2 mg/dL
TOTAL PROTEIN [1]: 5.77 G/DL
URIC ACID [1]: 0.7 mg/dL
ABSOLUTE BASOPHIL [2]: 0 CELLS/uL
ABSOLUTE EOSINOPHIL [2]: 0 CELLS/uL
ABSOLUTE LYMPHOCYTE [2]: 8295.33 CELLS/uL
ABSOLUTE MONOCYTE [2]: 84.67 CELLS/uL
ABSOLUTE SEGMENTED NEUTROPHIL [2]: 970 CELLS/uL
BASOPHIL [2]: 0%
EOSINOPHIL [2]: 0%
ERYTHROCYTE COUNT [2]: 5.74 x10E6/uL
HEMATOCRIT [2]: 36.22%
HEMOGLOBIN [2]: 13.85 G/DL
LEUKOCYTE COUNT [2]: 9.35 x10E3/uL
LYMPHOCYTE [2]: 88.67%
MEAN CORPUSCULAR HEMOGLOBIN [2]: 24.13 pg
MEAN CORPUSCULAR HEMOGLOBIN CONCENTRATION [2]: 38.25 G/DL
MEAN CORPUSCULAR VOLUME [2]: 63.08 fL
MONOCYTE [2]: 1%
NEUTROPHIL [2]: 10.33%
NUCLEATED RED BLOOD CELLS [2]: 0.17 /100WBC
PLATELET COUNT [2]: 883.83 x10E3/uL
ALANINE AMINOTRANSFERASE [2]: 64.5 u/L
ALKALINE PHOSPHATASE [2]: 425.67 u/L
ASPARTATE AMINOTRANSFERASE [2]: 88.5 u/L
BLOOD UREA NITROGEN [2]: 14.17 mg/dL
CARBON DIOXIDE [2]: 30.5 mmol/L
CHLORIDE [2]: 100.33 MEQ/L
CHOLESTEROL [2]: 55.33 mg/dL
CREATINE PHOSPHOKINASE [2]: 287.17 u/L
CREATININE [2]: 0.2 mg/dL
GLUCOSE [2]: 162.83 mg/dL
LACTATE DEHYDROGENASE [2]: 111.33 u/L
LIPASE [2]: 10.5 u/L
PHOSPHORUS [2]: 10.32 mg/dL
POTASSIUM [2]: 5.13 MEQ/L
SODIUM [2]: 143.93 MEQ/L
TOTAL BILIRUBIN [2]: 0.17 mg/dL
TOTAL PROTEIN [2]: 5.9 G/DL
URIC ACID [2]: 0.77 mg/dL
ABSOLUTE BASOPHIL [3]: 0 CELLS/uL
ABSOLUTE EOSINOPHIL [3]: 0 CELLS/uL
ABSOLUTE LYMPHOCYTE [3]: 9214.67 CELLS/uL
ABSOLUTE MONOCYTE [3]: 145.33 CELLS/uL
ABSOLUTE SEGMENTED NEUTROPHIL [3]: 940 CELLS/uL
BASOPHIL [3]: 0%
EOSINOPHIL [3]: 0%
ERYTHROCYTE COUNT [3]: 5.43 x10E6/uL
HEMATOCRIT [3]: 33.93%
HEMOGLOBIN [3]: 13.03 G/DL
LEUKOCYTE COUNT [3]: 10.3 x10E3/uL
LYMPHOCYTE [3]: 89.33%
MEAN CORPUSCULAR HEMOGLOBIN [3]: 24.03 pg
MEAN CORPUSCULAR HEMOGLOBIN CONCENTRATION [3]: 38.4 G/DL
MEAN CORPUSCULAR VOLUME [3]: 62.6 fL
MONOCYTE [3]: 1.33%
NEUTROPHIL [3]: 9.33%
NUCLEATED RED BLOOD CELLS [3]: 0 /100WBC
PLATELET COUNT [3]: 1124 x10E3/uL
ALANINE AMINOTRANSFERASE [3]: 72 u/L
ALKALINE PHOSPHATASE [3]: 422 u/L
ASPARTATE AMINOTRANSFERASE [3]: 86 u/L
BLOOD UREA NITROGEN [3]: 10.33 mg/dL
CARBON DIOXIDE [3]: 34.33 mmol/L
CHLORIDE [3]: 98.67 MEQ/L
CHOLESTEROL [3]: 71.67 mg/dL
CREATINE PHOSPHOKINASE [3]: 319.33 u/L
CREATININE [3]: 0.11 mg/dL
GLUCOSE [3]: 145.33 mg/dL
LACTATE DEHYDROGENASE [3]: 130.67 u/L
LIPASE [3]: 11.33 u/L
PHOSPHORUS [3]: 10.8 mg/dL
POTASSIUM [3]: 6.13 MEQ/L
SODIUM [3]: 144.4 MEQ/L
TOTAL BILIRUBIN [3]: 0.2 mg/dL
TOTAL PROTEIN [3]: 5.6 G/DL

Source: ChEMBL document CHEMBL3885881, “DrugMatrix”
